Values quoted from earlier work as cited in patent publication US20090254175A1, “Valved stent for chronic venous insufficiency” (priority 2008, published 2009).

| solubility in acetic acid | solubility in acetone and glacial acetic acid (acetone and glacial acetic acid, compared with alcohol) | solubility in alcohol | solubility in water (water) | SMILES |
| --- | --- | --- | --- | --- |
| soluble | to a lesser extent | soluble | sparingly soluble | C[C@H](CCC(=O)O)[C@H]1CC[C@H]2[C@@H]3CC[C@@H]4C[C@H](O)CC[C@]4(C)[C@H]3C[C@H](O)[C@]12C [Deoxycholic acid] |
| soluble | – | soluble | – | C[C@H](CCC(=O)O)[C@H]1CC[C@H]2[C@@H]3[C@@H](O)C[C@@H]4C[C@H](O)CC[C@]4(C)[C@H]3CC[C@]12C [ursodeoxycholic acid, reference compound] |
